Laboratory results published in patent US11440905B2, “Biheterocyclic compound” (SUMITOMO PHARMA CO., LTD., priority 2016, dated 2022).
Where a name gives a salt, the structure may show the parent alone.

Target: T1, mouse semaphorin 3A (Sema3A) (Mus musculus, UniProt O08665)
T1 sequence (O08665 21-772): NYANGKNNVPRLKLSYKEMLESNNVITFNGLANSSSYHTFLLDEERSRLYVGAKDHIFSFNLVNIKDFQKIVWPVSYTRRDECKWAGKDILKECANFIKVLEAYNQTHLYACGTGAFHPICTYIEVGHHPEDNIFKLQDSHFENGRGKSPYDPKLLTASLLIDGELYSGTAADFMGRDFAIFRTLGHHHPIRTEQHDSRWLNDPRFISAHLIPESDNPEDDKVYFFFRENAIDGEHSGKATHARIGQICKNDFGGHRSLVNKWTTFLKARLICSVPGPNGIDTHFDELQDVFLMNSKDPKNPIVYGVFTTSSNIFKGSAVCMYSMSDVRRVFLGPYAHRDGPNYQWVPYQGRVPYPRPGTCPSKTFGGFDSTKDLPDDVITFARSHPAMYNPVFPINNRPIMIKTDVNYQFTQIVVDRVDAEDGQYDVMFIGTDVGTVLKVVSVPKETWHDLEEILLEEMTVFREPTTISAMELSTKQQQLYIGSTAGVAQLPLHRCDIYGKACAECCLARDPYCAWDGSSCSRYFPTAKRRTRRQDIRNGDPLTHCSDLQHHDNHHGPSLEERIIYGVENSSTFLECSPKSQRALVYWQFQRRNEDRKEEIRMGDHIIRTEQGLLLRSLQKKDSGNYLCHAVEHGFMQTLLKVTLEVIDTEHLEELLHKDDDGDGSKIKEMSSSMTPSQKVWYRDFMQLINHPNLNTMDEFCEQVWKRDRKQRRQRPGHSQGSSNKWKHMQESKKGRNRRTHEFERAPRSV
Assay: Inhibitory activity for the collapse activity caused by Sema3A (growth cone collapse assay, Test 1)
Assay type: cell-based
Settings: chick embryo dorsal root ganglion, 3 units/mL mouse Sema3A, smaller value = more potent inhibition, read-out: residual ratio (%) of Sema3A activity (collapse assay); for remaining activity at 1 µM: 1 μM test compound; for remaining activity at 3 µM: 3 μM test compound; for remaining activity at 10 µM: 10 μM test compound
Description: Inhibitory Activity for the Collapse Activity Caused by Sema3A
96 well-plate (SUMITOMO BAKELITE CO., LTD.) which was beforehand coated with polylysine was further coated with laminin (10 μL laminin, at room temperature, for 1 hour). To each well was added 100 μL of a medium (F12 medium containing 10% fetal bovine serum, 20 ng/mL NGF, 100 unit/mL penicillin, and 100 μg/mL streptomycin). Dorsal root ganglion harvested from 7-8 day-old chick embryo was inoculated thereto, and the culture medium was cultivated under the condition of 5% CO2 and 37° C. for 16-20 hours. And then, each test compound in various concentrations was added to the medium, each test medium was cultivated for 30 minutes, 3 units/mL mouse semaphorin 3A (Sema3A) was added to each medium, and then each test medium was cultivated for more 30 minutes. Then, glutaraldehyde was added to the medium, in which the final concentration of glutaraldehyde was 1%. The medium was left to stand at room temperature for 15 minutes to make the tissue fragment fixed, and the ratio of the retracted growth cone was measured under a microscope.

Row | SMILES | remaining activity at 1 µM | remaining activity at 3 µM | remaining activity at 10 µM
1 | N=C(N)NCCC[C@H](NC(=O)Cn1cc(COC(=O)c2c(O)c(O)cc3occ(-c4cc5cc(O)c(O)cc5oc4=O)c(=O)c23)nn1)C(=O)O [Example 12, N^2-{[4-({[(6,6′,7,7′-Tetrahydroxy-2,4′-dioxo-2H,4′H-3,3′-bichromen-5′-yl)carbonyl]oxy}methyl)-1H-1,2,3-triazol-1-yl]acetyl}-L-arginine trifluoroacetate] | 65.5% | – | –
2 | Cn1cc(-c2coc3cc(O)c(O)c(C(=O)OC[C@H]4CC[C@H](N)CC4)c3c2=O)c(=O)c2cc(O)c(O)cc21 [Example 24, (trans-4-Aminocyclohexyl)methyl 3-(6,7-dihydroxy-1-methyl-4-oxo-1,4-dihydroquinolin-3-yl)-6,7-dihydroxy-4-oxo-4H-chromene-5-carboxylate hydrochloride] | < 70% | < 10% | –
3 | Cn1c(=O)c(-c2coc3cc(O)c(O)c(C(=O)O)c3c2=O)cc2cc(O)c(O)cc21 [Example 13, 3-(6,7-Dihydroxy-1-methyl-2-oxo-1,2-dihydroquinolin-3-yl)-6,7-dihydroxy-4-oxo-4H-chromene-5-carboxylic acid] | – | – | < 70%
4 | Cn1cc(-c2coc3cc(O)c(O)c(C(=O)OCC[C@H](N)C(=O)O)c3c2=O)c(=O)c2cc(O)c(O)cc21 [Example 27, O-{[3-(6,7-Dihydroxy-1-methyl-4-oxo-1,4-dihydroquinolin-3-yl)-6,7-dihydroxy-4-oxo-4H-chromen-5-yl]carbonyl}-L-homoserine hydrochloride] | < 10% | < 10% | –
5 | Cc1nc2cc(O)c(O)cn2c(=O)c1-c1coc2cc(O)c(O)c(C(=O)O)c2c1=O [Example 16, 3-(7,8-Dihydroxy-2-methyl-4-oxo-4H-pyrido[1,2-a]pyrimidin-3-yl)-6,7-dihydroxy-4-oxo-4H-chromene-5-carboxylic acid] | 15.9% | 2.2% | –
6 | Cn1cc(-c2coc3cc(O)c(O)c(C(=O)OCC(N)=O)c3c2=O)c(=O)c2cc(O)c(O)cc21 [Example 30, 2-Amino-2-oxoethyl 3-(6,7-dihydroxy-1-methyl-4-oxo-1,4-dihydroquinolin-3-yl)-6,7-dihydroxy-4-oxo-4H-chromene-5-carboxylate] | – | < 40% | –
7 | Cn1c(=O)c(-c2coc3cc(O)c(O)c(C(=O)OCc4cn(CC(=O)N[C@@H](CCC(=O)O)C(=O)O)nn4)c3c2=O)cc2cc(O)c(O)cc21 [Example 14, N-({4-[({[3-(6,7-Dihydroxy-1-methyl-2-oxo-1,2-dihydroquinolin-3-yl)-6,7-dihydroxy-4-oxo-4H-chromen-5-yl]carbonyl}oxy)methyl]-1H-1,2,3-triazol-1-yl}acetyl)-L-glutamic acid] | 78.8% | 6.1% | –
8 | Cn1cc(-c2coc3cc(O)c(O)c(C(=O)N[C@@H](CCC(=O)O)C(=O)O)c3c2=O)c(=O)c2cc(O)c(O)cc21 [Example 5, N-{[3-(6,7-Dihydroxy-1-methyl-4-oxo-1,4-dihydroquinolin-3-yl)-6,7-dihydroxy-4-oxo-4H-chromen-5-yl]carbonyl}-L-glutamic acid] | 5.1% | 3.3% | –
9 | Cc1c(-c2coc3cc(O)c(O)c(C(=O)OCc4cn(CC(=O)N[C@@H](CCC(=O)O)C(=O)O)nn4)c3c2=O)c(=O)c2cc(O)c(O)cc2n1C [Example 8, N-({4-[({[3-(6,7-Dihydroxy-1,2-dimethyl-4-oxo-1,4-dihydroquinolin-3-yl)-6,7-dihydroxy-4-oxo-4H-chromen-5-yl]carbonyl}oxy)methyl]-1H-1,2,3-triazol-1-yl}acetyl)-L-glutamic acid] | 27.3% | 21% | –
10 | Cc1c(-c2coc3cc(O)c(O)c(C(=O)OCc4cn(CC(=O)N[C@@H](CCC(=O)O)C(=O)O)nn4)c3c2=O)c(=O)n(C)c2cc(O)c(O)cc12 [Example 15, N-({4-[({[3-(6,7-Dihydroxy-1,4-dimethyl-2-oxo-1,2-dihydroquinolin-3-yl)-6,7-dihydroxy-4-oxo-4H-chromen-5-yl]carbonyl}oxy)methyl]-1H-1,2,3-triazol-1-yl}acetyl)-L-glutamic acid] | 5.4% | 0% | –
11 | Cn1cc(-c2coc3cc(O)c(O)c(C(=O)OCC(O)CO)c3c2=O)c(=O)c2cc(O)c(O)cc21 (stereo not shown) [Example 23, 2,3-Dihydroxypropyl 3-(6,7-dihydroxy-1-methyl-4-oxo-1,4-dihydroquinolin-3-yl)-6,7-dihydroxy-4-oxo-4H-chromene-5-carboxylate] | < 70% | < 10% | –
12 | O=C(O)c1c(O)c(O)cc2occ(-c3cc4cc(O)c(O)cc4oc3=O)c(=O)c12 [Example 9, 6,6′,7,7′-Tetrahydroxy-2,4′-dioxo-2H,4′H-3,3′-bichromene-5′-carboxylic acid] | 3.4% | 7.3% | –
13 | Cc1nc2cc(O)c(O)cn2c(=O)c1-c1coc2cc(O)c(O)c(C(=O)OCC(=O)N[C@@H](CCC(=O)O)C(=O)O)c2c1=O [Example 18, N-[({[3-(7,8-Dihydroxy-2-methyl-4-oxo-4H-pyrido[1,2-a]pyrimidin-3-yl)-6,7-dihydroxy-4-oxo-4H-chromen-5-yl]carbonyl}oxy)acetyl]-L-glutamic acid] | 21.8% | 6.7% | –
14 | Cc1c(-c2coc3cc(O)c(O)c(C(=O)O)c3c2=O)c(=O)c2cc(O)c(O)cc2n1C [Example 7, 3-(6,7-Dihydroxy-1,2-dimethyl-4-oxo-1,4-dihydroquinolin-3-yl)-6,7-dihydroxy-4-oxo-4H-chromene-5-carboxylic acid] | – | < 70% | < 40%
15 | Cn1cc(-c2coc3cc(O)c(O)c(C(=O)OCc4cn(CC(=O)N[C@@H](CCCNC(=N)N)C(=O)O)nn4)c3c2=O)c(=O)c2cc(O)c(O)cc21 [Example 4, N^2-({4-[({[3-(6,7-Dihydroxy-1-methyl-4-oxo-1,4-dihydroquinolin-3-yl)-6,7-dihydroxy-4-oxo-4H-chromen-5-yl]carbonyl}oxy)methyl]-1H-1,2,3-triazol-1-yl}acetyl)-L-arginine trifluoroacetate] | 6% | – | –
16 | O=C(O)CC[C@H](NC(=O)Cn1cc(COC(=O)c2c(O)c(O)cc3occ(-c4cc5cc(O)c(O)cc5oc4=O)c(=O)c23)nn1)C(=O)O [Example 11, N-{[4-({[(6,6′,7,7′-Tetrahydroxy-2,4′-dioxo-2H,4′H-3,3′-bichromen-5′-yl)carbonyl]oxy}methyl)-1H-1,2,3-triazol-1-yl]acetyl}-L-glutamic acid] | 7.9% | – | –
17 | Cc1nc2cc(O)c(O)cn2c(=O)c1-c1coc2cc(O)c(O)c(C(=O)OCc3cn(CC(=O)N[C@@H](CCC(=O)O)C(=O)O)nn3)c2c1=O [Example 17, N-({4-[({[3-(7,8-Dihydroxy-2-methyl-4-oxo-4H-pyrido[1,2-a]pyrimidin-3-yl)-6,7-dihydroxy-4-oxo-4H-chromen-5-yl]carbonyl}oxy)methyl]-1H-1,2,3-triazol-1-yl}acetyl)-L-glutamic acid] | 90.1% | 3.3% | –
18 | Cn1cc(-c2coc3cc(O)c(O)c(C(=O)O)c3c2=O)c(=O)c2cc(O)c(O)cc21 [Example 1, 3-(6,7-Dihydroxy-1-methyl-4-oxo-1,4-dihydroquinolin-3-yl)-6,7-dihydroxy-4-oxo-4H-chromene-5-carboxylic acid] | 2% | 4.6% | –
